The values below come from patent publication EP4610269A1, “UROKINASE PLASMINOGEN ACTIVATOR SURFACE RECEPTOR (UPAR) LIGANDS FOR DIAGNOSTIC OR THERAPEUTIC USE” (3B Pharmaceuticals GmbH, priority 2024, dated 2025).

Data set [1] addresses T1, uPAR-expressing HEC-265 human endometrial adenocarcinoma cells (Homo sapiens, UniProt Q03405).
T1 construct: Cell surface uPAR-expressing HEC-265 human endometrial adenocarcinoma cells; host or cells: HEC-265
Kind of data set: Competitive FACS binding assay. To be noted: pIC50 category of FACS binding. A digest of the protocol: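 Competitive displacement of a 10 nM biotinylated peptide from HEC-265 cells (1 h, 4 °C, PBS/1% BSA), detected via APC-streptavidin by flow cytometry. pIC50 from four-parameter logistic fit of median fluorescence versus concentration.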

Data set [2] has as its target T2, Recombinant soluble human NEP (Homo sapiens, UniProt P08473).
T2 construct: Recombinant soluble human NEP; purchased BioTechne, Wiesbaden, Germany
Briefly: Proteolytic stability assay against NEP. To be noted: recombinant soluble human NEP, human NEP 100 ng/mL, compound 10 µM, 37°C, LC-MS quantification, read-out: % intact compound remaining after 24h incubation. Format: in vitro ADME. An outline of the steps: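 Compound (10 µM) with internal standard (10 µM) incubated at 37°C with recombinant soluble human NEP at 100 ng/mL, sampled over time. LC-MS (positive ESI Q-TOF) quantified by matrix calibration against the internal standard. Value is % intact compound remaining after 24 h.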

Structures are written as SMILES. *1 amine or outer side, *2 acyl side, *3 side chain or, on linkers, in order; H or OH if unused. Where a SMILES comes first, the peptide text is derived from it. Bridges are numbered along the chain shown (N, C = ends). [ ]: non-standard residue; d: D form. The star is where a group is joined. Pro(trans-4-NH2) = O=C([C@@H]1C[C@@H](N[*:3])CN1[*:1])[*:2]; DOTA = O=C(O)CN1CCN(CC(=O)O)CCN(CC(=O)*)CCN(CC(=O)O)CC1; Hyp = O=C(O)[C@@H]1C[C@@H](O)CN1; Pentanoyl(4-Me) = CC(C)CCC(=O)*; Cit = NC(=O)NCCC[C@H](N)C(=O)O; Nva = CCC[C@H](N)C(=O)O; Pentanoyl = CCCCC(=O)*

T2 sequence (P08473 52-750 limits assumed): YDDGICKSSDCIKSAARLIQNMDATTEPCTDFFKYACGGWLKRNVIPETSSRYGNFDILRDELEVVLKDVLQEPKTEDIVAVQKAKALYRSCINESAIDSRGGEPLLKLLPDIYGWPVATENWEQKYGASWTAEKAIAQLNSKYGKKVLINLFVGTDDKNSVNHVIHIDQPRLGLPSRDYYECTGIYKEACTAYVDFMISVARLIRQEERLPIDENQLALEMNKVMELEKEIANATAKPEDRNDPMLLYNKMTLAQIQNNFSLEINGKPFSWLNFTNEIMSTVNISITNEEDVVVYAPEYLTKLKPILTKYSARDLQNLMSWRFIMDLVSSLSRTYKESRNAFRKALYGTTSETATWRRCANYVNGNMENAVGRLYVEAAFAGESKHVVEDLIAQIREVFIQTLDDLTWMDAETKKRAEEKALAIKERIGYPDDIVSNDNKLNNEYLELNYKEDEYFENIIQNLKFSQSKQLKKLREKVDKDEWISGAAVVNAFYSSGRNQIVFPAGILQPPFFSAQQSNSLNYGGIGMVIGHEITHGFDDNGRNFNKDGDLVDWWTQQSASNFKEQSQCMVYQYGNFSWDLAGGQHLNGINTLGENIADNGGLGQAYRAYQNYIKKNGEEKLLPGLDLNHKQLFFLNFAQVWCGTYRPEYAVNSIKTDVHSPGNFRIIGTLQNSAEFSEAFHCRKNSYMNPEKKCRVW
T1 sequence (Q03405 23-335): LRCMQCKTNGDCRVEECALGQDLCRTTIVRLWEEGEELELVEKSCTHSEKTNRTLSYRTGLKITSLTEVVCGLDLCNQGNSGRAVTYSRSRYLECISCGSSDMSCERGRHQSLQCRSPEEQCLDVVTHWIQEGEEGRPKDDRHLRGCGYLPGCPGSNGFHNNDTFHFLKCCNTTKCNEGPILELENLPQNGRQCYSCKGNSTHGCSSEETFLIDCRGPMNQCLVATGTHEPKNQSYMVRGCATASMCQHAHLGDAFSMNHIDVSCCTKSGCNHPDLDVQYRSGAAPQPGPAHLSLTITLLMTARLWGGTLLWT

Turning to `CC[C@H](C)[C@@H]1NC(=O)[C@@H]2C[C@@H](NC(=O)CN3CCN(CC(=O)O)CCN(CC(=O)O)CCN(CC(=O)O)CC3)CN2C(=O)[C@@H]2CCCN2C(=O)[C@H](Cc2ccccc2)NC(=O)[C@H](Cc2ccc(O)cc2)NC(=O)[C@H](CCC(N)=O)NC(=O)[C@H](CCCNC(N)=O)NC(=O)[C@@H](NC(=O)CCC(C)C)CSSC[C@@H](C(N)=O)NC(=O)[C@H](CC(C)C)NC1=O` [UPAR-389, iHex-[Cys-Cit-Gln-Tyr-Phe-Pro-Tap(DOTA)-Ile-Leu-Cys]-NH2] ({Pentanoyl(4-Me)}-C[Cit]QYFP[Pro(trans-4-NH2)](DOTA)ILC-NH2; disulfide 1-10), in data set [1], the IC50 is not above 10 nM. Also, the amount remaining at 24 h, 10 µM in data set [2] is more than 95%.

As for `CCCCC(=O)N[C@H]1CSSC[C@@H](C(N)=O)NC(=O)[C@H](CCC)NC(=O)[C@H]([C@@H](C)CC)NC(=O)[C@@H]2C[C@@H](O)CN2C(=O)[C@@H]2C[C@@H](O)CN2C(=O)[C@H](Cc2ccccc2)NC(=O)[C@H](Cc2ccc(O)cc2)NC(=O)[C@H](CCCCNC(=O)CN2CCN(CC(=O)O)CCN(CC(=O)O)CCN(CC(=O)O)CC2)NC(=O)[C@H](CCCNC(N)=O)NC1=O` [UPAR-403, Pent-[Cys-Cit-Lys(DOTA)-Tyr-Phe-Hyp-Hyp-Ile-Nva-Cys]-NH2] (Pentanoyl-C[Cit]K(DOTA)YF[Hyp][Hyp]I[Nva]C-NH2; disulfide 1-10), the IC50 in data set [1] is not above 10 nM. Besides, in data set [2], the share remaining at 24 h, 10 µM is 95%.

Take `CC[C@H](C)[C@@H]1NC(=O)[C@@H](C)NC(=O)[C@@H]2CCCN2C(=O)[C@H](Cc2ccccc2)NC(=O)[C@H](Cc2ccc(O)cc2)NC(=O)[C@H](CC(=O)O)NC(=O)[C@H](CCCNC(N)=O)NC(=O)[C@@H](NC(=O)CCC(C)C)CSSC[C@@H](C(N)=O)NC(=O)[C@H](CC(C)C)NC1=O` [UPAR-434, iHex-[Cys-Cit-Asp-Tyr-Phe-Pro-ala-Ile-Leu-Cys]-NH2] ({Pentanoyl(4-Me)}-C[Cit]DYFP[dA]ILC-NH2; disulfide 1-10): the IC50 in data set [1] is not above 10 nM. The fraction remaining at 24 h, 10 µM in data set [2] was more than 95%.

Turning to `CC[C@H](C)[C@@H]1NC(=O)[C@@H](C)NC(=O)[C@@H]2CCCN2C(=O)[C@H](Cc2ccccc2)NC(=O)[C@H](Cc2ccc(O)cc2)NC(=O)[C@H](CCC(N)=O)NC(=O)[C@H](CCCNC(N)=O)NC(=O)[C@@H](NC(=O)[C@H](CC(C)C)NC(=O)CN2CCN(CC(=O)O)CCN(CC(=O)O)CCN(CC(=O)O)CC2)CSSC[C@@H](C(N)=O)NC(=O)[C@H](CC(C)C)NC1=O` [UPAR-441, DOTA-Leu-[Cys-Cit-Gln-Tyr-Phe-Pro-ala-Ile-Leu-Cys]-NH2] ({DOTA}-LC[Cit]QYFP[dA]ILC-NH2; disulfide 2-11), in data set [1], the IC50 is 39.8 to 100 nM. Further, the amount remaining at 24 h, 10 µM in data set [2] came to 61%.

By IC50 is commonly meant the point on the concentration scale where inhibition reaches its midpoint. The amount remaining is the share of the starting amount still present when the sample was taken.
